In patent publication US10125100B2, “Kinase inhibitors” (Respivert Limited, priority 2014, dated 2018):
Counter-ions that a name gives are not always drawn. Like-named read-outs stand apart in the source and are kept apart here.

Tests used:
[1] = Stability of pharmaceutical formulations; type: physicochemical; details: for Original Purity: 1 mg/mL solution, before storage; for Purity at week n = 1: 1 week; for Purity at week n = 2: 2 weeks; for Purity at week n = 4: 4 weeks
Description: The samples were sonicated to achieve clear solutions having the following properties: Osmolality (mOsm/kg): 310 (Na), 314 (HCl); pH: 7.00 (Na), 7.05 (HCl). 0.5 mL of the stock solutions were diluted to 1 mL with 20% DMSO in water & injected for purity analysis by HPLC. The remaining stock solutions were then split into aliquots of 0.5 mL in HPLC vials, and stored at various conditions in duplicate. Samples were stored at 5 and 25° C., before being analysed by HPLC at 1, 2 and 4 weeks. Separate samples were stored at 40° C. and analysed at 4 weeks.

[2] = target: p38 MAPKα (MAPK14) (Homo sapiens (Human), UniProt Q16539); assay: p38 MAPKα enzyme inhibition (Method 2), Z-LYTE FRET; type: biochemical
Outline: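 Enzyme (200 ng/mL solution) was preincubated 2 h at RT with compound solutions of 1, 0.1, 0.01 or 0.001 μg/mL, and inhibition was read indirectly via MAPKAP-K2 activation/phosphorylation. After a 1 h RT reaction and 1 h protease development, phosphorylation was derived from the coumarin/fluorescein emission ratio.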

[3] = target: c-Src (Homo sapiens (Human), UniProt P12931); assay: c-Src enzyme inhibition, Z-LYTE FRET; type: biochemical
Outline: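 Human Syk and c-Src (enzyme at 2000 or 3000 ng/mL respectively, pre-dilution) preincubated 2 hr at RT with compound at 1, 0.1, 0.01 or 0.001 μg/mL; FRET peptide added with ATP (60 μM Syk, 800 μM c-Src; solution concentrations), 1 hr. Protease development 1 hr; phosphorylation from coumarin/fluorescein emission ratio.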

[4] = target: Syk (Homo sapiens (Human), UniProt P43405); assay: Syk enzyme inhibition, Z-LYTE FRET; type: biochemical
Outline: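 Syk or c-Src enzyme (3000 or 2000 ng/mL solutions) was preincubated 2 h at RT with compound solutions at 1, 0.1, 0.01 or 0.001 µg/mL. Z-LYTE FRET peptide (8 µM solution) and ATP (800 µM solution for c-Src, 60 µM for Syk) were then added for 1 h, followed by protease development for 1 h. Phosphorylation was read as the coumarin/fluorescein emission ratio.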

[5] = system: mitosis in PBMCs; assay: (g) Cell mitosis assay; type: cell-based; details: Homo sapiens, PBMC, 5 μg/mL
Description: Peripheral blood mononucleocytes (PBMCs) from healthy subjects are separated from whole blood (Quintiles, London, UK) using a density gradient (Histopaque®-1077, Sigma-Aldrich, Poole, UK). The PBMCs (3 million cells per sample) are subsequently treated with 2% PHA (phytohaemagglutinin, Sigma-Aldrich, Poole, UK) for 48 hr, followed by a 20 hr exposure to varying concentrations of test compounds. At 2 hr before collection, PBMCs are treated with demecolcine (0.1 μg/mL; Invitrogen, Paisley, UK) to arrest cells in metaphase. To observe mitotic cells, PBMCs are permeabilized and fixed by adding Intraprep (50 μL; Beckman Coulter, France), and stained with anti-phospho-histone 3 ([…]; #9701; Cell Signalling, Danvers, Mass.) and propidium iodide (1 mg/mL; Sigma-Aldrich, Poole, UK) as previously described (Muehlbauer P. A. and Schuler M. J., Mutation Research, 2003, 537:117-130). Fluorescence is observed using an ATTUNE flow cytometer (Invitrogen, Paisley, UK), gating for lymphocytes.

[6] = system: Jurkat cells; assay: (r) Cell cytotoxicity assay; type: cell-based, human; details: 24 hours
Outline: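 Jurkat cells (1×10^5/well, RPMI + 10% FBS) exposed to compound at 20, 5 or 1 μg/mL final (1.0% DMSO control) for 24 h at 37° C., 5% CO2. Then stained with 7.5 μg/mL propidium iodide for 15 min. % viability = PI-negative cells by flow cytometry, normalized to DMSO.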

[7] = Pharmacokinetics and total colon distribution after oral administration; type: in vivo; details: male, C57BL/6, mouse, mice, oral 5 mg/kg, dosed compound measured
Description: Studies were conducted by Sai Life Sciences (Hinjewadi, Pune, India) to investigate the systemic pharmacokinetics and total colon tissue distribution of compounds of the invention. In particular, pharmacokinetic studies were carried out in male C57BL/6 mice following a single oral administration of the compound.

[8] = blood, read-out: Mean blood concentration
[9] = total colon, read-out: total colon level

Chain of p38 MAPKα (MAPK14) (Q16539 whole entry): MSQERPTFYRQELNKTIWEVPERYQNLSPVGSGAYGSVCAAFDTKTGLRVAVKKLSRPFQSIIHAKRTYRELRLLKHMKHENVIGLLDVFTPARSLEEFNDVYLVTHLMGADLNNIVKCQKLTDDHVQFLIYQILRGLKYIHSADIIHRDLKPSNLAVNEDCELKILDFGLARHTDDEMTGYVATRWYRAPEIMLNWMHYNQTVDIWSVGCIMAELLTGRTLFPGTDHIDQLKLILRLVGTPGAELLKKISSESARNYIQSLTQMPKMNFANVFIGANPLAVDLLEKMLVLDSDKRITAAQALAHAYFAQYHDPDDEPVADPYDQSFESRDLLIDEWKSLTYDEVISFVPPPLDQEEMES
Chain of c-Src (P12931 whole entry, looked up): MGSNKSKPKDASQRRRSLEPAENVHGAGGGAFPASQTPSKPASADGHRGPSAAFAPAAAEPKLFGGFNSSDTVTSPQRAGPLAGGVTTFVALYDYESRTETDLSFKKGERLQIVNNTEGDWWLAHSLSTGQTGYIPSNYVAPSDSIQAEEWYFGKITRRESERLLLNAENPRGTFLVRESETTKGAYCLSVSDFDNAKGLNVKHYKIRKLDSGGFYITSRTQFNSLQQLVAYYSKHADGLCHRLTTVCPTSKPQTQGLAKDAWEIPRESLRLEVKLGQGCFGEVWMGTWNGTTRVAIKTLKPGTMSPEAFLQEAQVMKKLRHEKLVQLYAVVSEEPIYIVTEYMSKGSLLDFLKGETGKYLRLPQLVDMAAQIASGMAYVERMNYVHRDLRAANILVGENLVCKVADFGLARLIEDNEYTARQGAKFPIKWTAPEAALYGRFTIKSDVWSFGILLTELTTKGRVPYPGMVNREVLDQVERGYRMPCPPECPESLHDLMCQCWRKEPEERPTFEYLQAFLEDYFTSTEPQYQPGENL

COc1cc(Nc2cc(Oc3ccc(NC(=O)Nc4cc(C(C)(C)C)cc(NS(C)(=O)=O)c4OC)c4ccccc34)ccn2)ccc1C(=O)O.Cl [Example 1, hydrochloride salt]
Original Purity ([1]; Sample 1): 98.1% | Purity at week n = 1 ([1]; Sample 1, 5° C.): 98.2% | Purity at week n = 2 ([1]; Sample 1, 5° C.): 98.1% | Purity at week n = 4 ([1]; Sample 1, 5° C.): 97.9% | Purity at week n = 1 ([1]; Sample 1, 25° C.): 98.0% | Purity at week n = 2 ([1]; Sample 1, 25° C.): 97.7% | Purity at week n = 4 ([1]; Sample 1, 25° C.): 97.2% | Purity at week n = 4 ([1]; Sample 1, 40° C.): 79.2% | Original Purity ([1]; Sample 2): 98.1% | Purity at week n = 1 ([1]; Sample 2, 5° C.): 98.2% | Purity at week n = 2 ([1]; Sample 2, 5° C.): 98.0% | Purity at week n = 4 ([1]; Sample 2, 5° C.): 98.0% | Purity at week n = 1 ([1]; Sample 2, 25° C.): 98.0% | Purity at week n = 2 ([1]; Sample 2, 25° C.): 97.6% | Purity at week n = 4 ([1]; Sample 2, 25° C.): 97.4% | Purity at week n = 4 ([1]; Sample 2, 40° C.): 80.4%

COc1cc(Nc2cc(Oc3ccc(NC(=O)Nc4cc(C(C)(C)C)cc(NS(C)(=O)=O)c4OC)c4ccccc34)ccn2)ccc1C(=O)O [Example 1, sodium salt]
Purity at week n = 4 ([1]; Sample 1, 40° C.): 76.0%

COc1cc(Nc2cc(Oc3ccc(NC(=O)Nc4cc(C(C)(C)C)cc(NS(C)(=O)=O)c4OC)c4ccccc34)ccn2)ccc1C(=O)NCCC1CCN(C)CC1 [Example 14, 4-[[4-[[4-[[5-tert-Butyl-3-(methanesulfonamido)-2-methoxy-phenyl]carbamoylamino]-1-naphthyl]oxy]-2-pyridyl]amino]-2-methoxy-N-[2-(1-methyl-4-piperidyl)ethyl]benzamide]
IC50 [2]: 10 nM | IC50 [3]: 19 nM | IC50 [4]: 92 nM | inhibition at 5 µg/mL [5]: 60.1% | % Viability at 1 μg/mL [6]: 101.9% | % Viability at 5 μg/mL [6]: 98.8% | % Viability at 20 μg/mL [6]: 0.7%

C#Cc1cc(Nc2cc(Oc3ccc(NC(=O)Nc4cc(C(C)(C)C)cc(NS(C)(=O)=O)c4OC)c4ccccc34)ccn2)ccc1C(=O)NCCN1CCOCC1 [Example 15, 4-[[4-[[4-[[5-tert-Butyl-3-(methanesulfonamido)-2-methoxy-phenyl]carbamoylamino]-1-naphthyl]oxy]-2-pyridyl]amino]-2-ethynyl-N-(2-morpholinoethyl)benzamide]
IC50 [2]: 64 nM | IC50 [3]: 43 nM | IC50 [4]: 163 nM | inhibition at 5 µg/mL [5]: 62.3% | % Viability at 1 μg/mL [6]: 99.5% | % Viability at 5 μg/mL [6]: 75.0% | % Viability at 20 μg/mL [6]: 74.5%

COc1cc(Nc2cc(Oc3ccc(NC(=O)Nc4cc(C(C)(C)C)cc(NS(C)(=O)=O)c4OC)c4ccccc34)ccn2)ccc1C(=O)NCCOCCOCCO [Example 16, 4-[[4-[[4-[[5-tert-Butyl-3-(methanesulfonamido)-2-methoxy-phenyl]carbamoylamino]-1-naphthyl]oxy]-2-pyridyl]amino]-N-[2-[2-(2-hydroxyethoxy)ethoxy]ethyl]-2-methoxy-benzamide]
IC50 [2]: 34 nM | IC50 [3]: 22 nM | IC50 [4]: 107 nM | inhibition at 5 µg/mL [5]: 50.1% | % Viability at 1 μg/mL [6]: 90.1% | % Viability at 5 μg/mL [6]: 52.5% | % Viability at 20 μg/mL [6]: 19.1%

COc1cc(Nc2cc(Oc3ccc(NC(=O)Nc4cc(C(C)(C)C)cc(NS(C)(=O)=O)c4OC)c4ccccc34)ccn2)ccc1C(=O)NCCOCCOCCOP(=O)(O)O [Example 19, 2-(2-(2-(4-((4-((4-(3-(5-(tert-Butyl)-2-methoxy-3-(methylsulfonamido)phenyl)ureido)-naphthalen-1-yl)oxy)pyridin-2-yl)amino)-2-methoxybenzamido)ethoxy)ethoxy)ethyl dihydrogen phosphate]
% Viability at 1 μg/mL [6]: 105.0% | % Viability at 5 μg/mL [6]: 106.0% | % Viability at 20 μg/mL [6]: 100.9% | concentration at 0.5 h [7, 8]: 0 ng/mL | concentration at 1 h [7, 8]: 0 ng/mL | concentration at 2 h [7, 8]: 0 ng/mL | concentration at 4 h [7, 8]: 0 ng/mL | concentration at 6 h [7, 8]: 0 ng/mL | concentration at 8 h [7, 8]: 0 ng/mL | concentration at 12 h [7, 8]: 0 ng/mL | concentration at 24 h [7, 8]: 0 ng/mL | concentration at 0.5 h [7, 9]: 0 ng/g | concentration at 1 h [7, 9]: 0 ng/g | concentration at 2 h [7, 9]: 0 ng/g | concentration at 4 h [7, 9]: 0 ng/g | concentration at 6 h [7, 9]: 0 ng/g | concentration at 8 h [7, 9]: 0 ng/g | concentration at 12 h [7, 9]: 0 ng/g | concentration at 24 h [7, 9]: 0 ng/g
